In PubChem BioAssay AID1963847 (Molecular Pharmacology Branch, DTP, NCI, 2024):

Test system: 415267-285-R-J2-PDC complex spheroid viability
Experiment: Anticancer human tumor 415267-285-R-J2-PDC patient-derived breast carcinoma cell line growth inhibition [POLQ]
Settings: for IC50: curve of first compound; for viability, T/C: stronger effect = lower value
In short: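 Complex spheroid viability model combining PDC tumour cells with endothelial (HUVEC) and MSC stromal cells. Novobiocin, ART-558 or RP6685 were tested singly and in combination with standard and investigational anticancer drugs. Each was titrated in half-log steps from near clinical Cmax, or from 10 microM where Cmax was unknown.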

[1] = second compound 0.0316 µM, first compound 0.0316 µM
[2] = second compound 0.0316 µM, first compound 0.1 µM
[3] = second compound 0.0316 µM, first compound 0.316 µM
[4] = second compound 0.0316 µM, first compound 1 µM
[5] = second compound 0.1 µM, first compound 0.0316 µM
[6] = second compound 0.1 µM, first compound 0.1 µM
[7] = second compound 0.1 µM, first compound 0.316 µM
[8] = second compound 0.1 µM, first compound 1 µM
[9] = second compound 0.316 µM, first compound 0.0316 µM
[10] = second compound 0.316 µM, first compound 0.1 µM
[11] = second compound 0.316 µM, first compound 0.316 µM
[12] = second compound 0.316 µM, first compound 1 µM
[13] = second compound 1 µM, first compound 0.0316 µM
[14] = second compound 1 µM, first compound 0.1 µM
[15] = second compound 1 µM, first compound 0.316 µM
[16] = second compound 1 µM, first compound 1 µM
[17] = second compound 3.16 µM, first compound 0.0316 µM
[18] = second compound 3.16 µM, first compound 0.1 µM
[19] = second compound 3.16 µM, first compound 0.316 µM
[20] = second compound 3.16 µM, first compound 1 µM
[21] = second compound 10 µM, first compound 0.0316 µM
[22] = second compound 10 µM, first compound 0.1 µM
[23] = second compound 10 µM, first compound 0.316 µM
[24] = second compound 10 µM, first compound 1 µM
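Also: spheroids exposed to compounds for one week before readout.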
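For viability, T/C in this document: luminescence used as stand-in measure of viable cells; 100% = DMSO vehicle control viability.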

COc1cc2cc(C(=O)CCC(=O)O)sc2cc1OC + COC1C(OC(N)=O)C(O)C(Oc2ccc3c(O)c(NC(=O)c4ccc(O)c(CC=C(C)C)c4)c(=O)oc3c2C)OC1(C)C
IC50 (second compound 0.0316 µM): > 10 µM
IC50 (second compound 0.1 µM): > 10 µM
IC50 (second compound 0.316 µM): > 10 µM
IC50 (second compound 1 µM): > 10 µM
IC50 (second compound 3.16 µM): > 10 µM
IC50 (second compound 10 µM): > 10 µM
viability, T/C [1]: 99.7%
viability, T/C [2]: 104%
viability, T/C [3]: 101%
viability, T/C [4]: 104%
viability, T/C (second compound 0.0316 µM, first compound 3.16 µM): 103%
viability, T/C (second compound 0.0316 µM, first compound 10 µM): 102%
viability, T/C [5]: 102%
viability, T/C [6]: 106%
viability, T/C [7]: 97.7%
viability, T/C [8]: 107%
viability, T/C (second compound 0.1 µM, first compound 3.16 µM): 102%
viability, T/C (second compound 0.1 µM, first compound 10 µM): 109%
viability, T/C [9]: 107%
viability, T/C [10]: 97.3%
viability, T/C [11]: 101%
viability, T/C [12]: 98.6%
viability, T/C (second compound 0.316 µM, first compound 3.16 µM): 117%
viability, T/C (second compound 0.316 µM, first compound 10 µM): 105%
viability, T/C [13]: 98.7%
viability, T/C [14]: 111%
viability, T/C [15]: 109%
viability, T/C [16]: 107%
viability, T/C (second compound 1 µM, first compound 3.16 µM): 104%
viability, T/C (second compound 1 µM, first compound 10 µM): 106%
viability, T/C [17]: 96.1%
viability, T/C [18]: 105%
viability, T/C [19]: 101%
viability, T/C [20]: 113%
viability, T/C (second compound 3.16 µM, first compound 3.16 µM): 96%
viability, T/C (second compound 3.16 µM, first compound 10 µM): 98.1%
viability, T/C [21]: 101%
viability, T/C [22]: 109%
viability, T/C [23]: 102%
viability, T/C [24]: 102%
viability, T/C (second compound 10 µM, first compound 3.16 µM): 96.7%
viability, T/C (second compound 10 µM, first compound 10 µM): 104%

CCc1c2c(nc3ccc(O)cc13)-c1cc3c(c(=O)n1C2)COC(=O)[C@]3(O)CC + Cc1cccc(N(C)C(=O)C2C(O)CCN2c2nc(C)cc(C(F)(F)F)c2C#N)c1
IC50 (second compound 0.0316 µM): < 0.00316 µM
IC50 (second compound 0.1 µM): < 0.00316 µM
IC50 (second compound 0.316 µM): < 0.00316 µM
IC50 (second compound 1 µM): < 0.00316 µM
IC50 (second compound 3.16 µM): < 0.00316 µM
IC50 (second compound 10 µM): < 0.00316 µM
viability, T/C (second compound 0.0316 µM, first compound 0.00316 µM): 27.1%
viability, T/C (second compound 0.0316 µM, first compound 0.01 µM): 11.3%
viability, T/C [1]: 5.73%
viability, T/C [2]: 3.97%
viability, T/C [3]: 3.18%
viability, T/C [4]: 1.44%
viability, T/C (second compound 0.1 µM, first compound 0.00316 µM): 26.4%
viability, T/C (second compound 0.1 µM, first compound 0.01 µM): 10%
viability, T/C [5]: 5.47%
viability, T/C [6]: 4.21%
viability, T/C [7]: 3.59%
viability, T/C [8]: 1.35%
viability, T/C (second compound 0.316 µM, first compound 0.00316 µM): 32.5%
viability, T/C (second compound 0.316 µM, first compound 0.01 µM): 11.6%
viability, T/C [9]: 5.27%
viability, T/C [10]: 3.49%
viability, T/C [11]: 3.51%
viability, T/C [12]: 1.32%
viability, T/C (second compound 1 µM, first compound 0.00316 µM): 34%
viability, T/C (second compound 1 µM, first compound 0.01 µM): 9.41%
viability, T/C [13]: 6.43%
viability, T/C [14]: 4.75%
viability, T/C [15]: 3.42%
viability, T/C [16]: 0.75%
viability, T/C (second compound 3.16 µM, first compound 0.00316 µM): 34.7%
viability, T/C (second compound 3.16 µM, first compound 0.01 µM): 8.16%
viability, T/C [17]: 6.7%
viability, T/C [18]: 4.46%
viability, T/C [19]: 4.26%
viability, T/C [20]: 1.28%
viability, T/C (second compound 10 µM, first compound 0.00316 µM): 29.4%
viability, T/C (second compound 10 µM, first compound 0.01 µM): 10.3%
viability, T/C [21]: 6.91%
viability, T/C [22]: 3.72%
viability, T/C [23]: 3.54%
viability, T/C [24]: 1.1%
